# Source: US6737383B1, “Herbicidal oxadiazolidines” (priority 1999, dated 2004)
# Legend:
# [1] = tested on: duck salad; experiment: Test B flood test duck salad; format: in vivo, Heteranthera limosa; conditions: for Ducksalad plant response rating: Pre-emergence
# Method: (§1) At the same time, these crop and weed species were also treated with postemergence applications of test chemicals formulated in the same manner. Plants ranged in height from 2 to 18 cm (1- to 4-leaf stage) for postemergence treatments. Plant species in the flood test consisted of rice (Oryza sativa), smallflower flatsedge (Cyperus difformis), duck salad (Heteranthera limosa) and bamyardgrass (Echinochloa crus-galli) grown to the 2-leaf stage for testing. Treated plants and controls were maintained in a greenhouse for twelve to sixteen days, after which all species were compared to controls and visually evaluated. Plant response ratings, summarized in Table B, are based on a scale of 0 to 10 where 0 is no effect and 10 is complete control. A dash (−) response means no test result.
# [2] = tested on: wild oat; experiment: Test B pre/postemergence wild oat; format: in vivo, Avena fatua; conditions: for Wild oats plant response rating: scale of 0 to 10 where 0 is no effect and 10 is complete control
# In short: (§2)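 Test chemicals in a non-phytotoxic solvent mixture with surfactant were sprayed preemergence onto planted seeds and postemergence onto plants 2 to 18 cm tall (1- to 4-leaf stage). After twelve to sixteen days in a greenhouse, injury was visually rated against untreated controls from 0 (no effect) to 10 (complete control).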
# [3] = tested on: wheat; experiment: Test B pre/postemergence wheat; format: in vivo, Triticum aestivum; conditions: for Wheat plant response rating: scale of 0 to 10 where 0 is no effect and 10 is complete control
# In short: as §2
# [4] = tested on: purple nutsedge; experiment: Test B pre/postemergence purple nutsedge; format: in vivo, Cyperus rotundus; conditions: for Nutsedge plant response rating: scale of 0 to 10 where 0 is no effect and 10 is complete control
# In short: as §2
# [5] = tested on: smallflower flatsedge; experiment: Test B flood test smallflower flatsedge; format: in vivo, Cyperus difformis
# Method: as §1
# [6] = tested on: bamyardgrass; experiment: Test B flood test barnyardgrass; format: in vivo, Echinochloa crus-galli
# Method: as §1
# [7] = tested on: corn; experiment: Test B pre/postemergence corn; format: in vivo, Zea mays; conditions: for Corn plant response rating: scale of 0 to 10 where 0 is no effect and 10 is complete control
# In short: as §2
# [8] = tested on: blackgrass; experiment: Test B pre/postemergence blackgrass; format: in vivo, Alopecurus myosuroides; conditions: for Blackgrass plant response rating: scale of 0 to 10 where 0 is no effect and 10 is complete control
# In short: as §2
# [9] = tested on: pigweed; experiment: Test B pre/postemergence pigweed; format: in vivo, Amaranthus retroflexus; conditions: for Redroot pigweed plant response rating: scale of 0 to 10 where 0 is no effect and 10 is complete control
# In short: as §2
# [10] = tested on: giant foxtail; experiment: Test B pre/postemergence giant foxtail; format: in vivo, Setaria faberii; conditions: for Giant foxtail plant response rating: scale of 0 to 10 where 0 is no effect and 10 is complete control
# In short: as §2
# [11] = Rate 125 g/ha, under heading Pre-emergence, flood test species, visual evaluation after twelve to sixteen days
# [12] = Postemergence, Rate 250 g/ha, scale 0 to 10, 0 is no effect, 10 is complete control
# [13] = Preemergence, Rate 62 g/ha, scale 0 to 10 (0 no effect, 10 complete control)
# [14] = Rate 62 g/ha, flood test species, Pre-emergence, visual evaluation after twelve to sixteen days
# [15] = Rate 250 g/ha, Pre-emergence, flood-test species, scale 0 to 10, 0 is no effect, 10 is complete control
# [16] = Rate 500 g/ha, Pre-emergence, flood test species, scale 0 to 10 (0 no effect, 10 complete control)
# [17] = Postemergence, Rate 125 g/ha, scale 0 to 10, 0 is no effect, 10 is complete control
structure (smiles),measurement,setting,value
CCCCCCn1c(=O)on(C(=O)N(c2ccc(F)cc2)C(C)C)c1=O [Compound 389],"Ducksalad plant response rating (0 to 10 scale, 0 is no effect, 10 is complete control)",[1]; [11],0
same,Ducksalad plant response rating,"[1]; Rate 250 g/ha, flood-test species, scale 0 to 10, 0 is no effect, 10 is complete control",0
same,Ducksalad plant response rating,"[1]; Rate 500 g/ha, flood test species, scale 0 to 10 (0 no effect, 10 complete control)",3
same,"Plant response rating, Wild oats",[2]; [12],0
same,Wild oats plant response rating,"[2]; Postemergence, Rate 500 g/ha",0
same,"Plant response rating, Wild oats",[2]; [13],0
same,Wild oats plant response rating (0 to 10 scale),"[2]; Preemergence, Rate 125 g/ha",0
same,Wild oats plant response rating,"[2]; Preemergence, Rate 250 g/ha",1
same,Wild oats plant response rating,"[2]; Preemergence, Rate 500 g/ha",4
same,Wild oats plant response rating,"[2]; Rate 62 g/ha, Postemergence",0
same,"Plant response rating, Wheat",[3]; [12],0
same,Wheat plant response rating,"[3]; Postemergence, Rate 500 g/ha",0
same,"Plant response rating, Wheat",[3]; [13],0
same,Wheat plant response rating (0 to 10 scale),"[3]; Preemergence, Rate 125 g/ha",0
same,Wheat plant response rating,"[3]; Preemergence, Rate 250 g/ha",0
same,Wheat plant response rating,"[3]; Preemergence, Rate 500 g/ha",0
same,Wheat plant response rating,"[3]; Rate 62 g/ha, Postemergence",0
same,"Plant response rating, Nutsedge",[4]; [12],0
same,Nutsedge plant response rating,"[4]; Postemergence, Rate 500 g/ha",0
same,"Plant response rating, Nutsedge",[4]; [13],0
same,Nutsedge plant response rating (0 to 10 scale),"[4]; Preemergence, Rate 125 g/ha",0
same,Nutsedge plant response rating,"[4]; Preemergence, Rate 250 g/ha",0
same,Nutsedge plant response rating,"[4]; Preemergence, Rate 500 g/ha",0
same,Nutsedge plant response rating,"[4]; Rate 62 g/ha, Postemergence",0
same,"Plant response rating, S. Flatsedge (0 to 10 scale, 0 is no effect, 10 is complete control)",[5]; [14],0
same,"S. Flatsedge plant response rating (0 to 10 scale, 0 is no effect, 10 is complete control)",[5]; [11],0
same,S. Flatsedge plant response rating,[5]; [15],0
same,S. Flatsedge plant response rating,[5]; [16],0
same,"Plant response rating, Barnyardgrass (0 to 10 scale, 0 is no effect, 10 is complete control)",[6]; [14],0
same,"Barnyardgrass plant response rating (0 to 10 scale, 0 is no effect, 10 is complete control)",[6]; [11],0
same,Barnyardgrass plant response rating,[6]; [15],0
same,Barnyardgrass plant response rating,[6]; [16],0
same,"Plant response rating, Corn",[7]; [17],0
same,"Plant response rating, Corn",[7]; [12],0
same,Corn plant response rating,"[7]; Postemergence, Rate 500 g/ha",0
same,"Plant response rating, Corn",[7]; [13],0
same,Corn plant response rating (0 to 10 scale),"[7]; Preemergence, Rate 125 g/ha",0
same,Corn plant response rating,"[7]; Preemergence, Rate 250 g/ha",0
same,Corn plant response rating,"[7]; Preemergence, Rate 500 g/ha",4
same,Corn plant response rating,"[7]; Rate 62 g/ha, Postemergence",0
same,"Plant response rating, Blackgrass",[8]; [17],0
same,"Plant response rating, Blackgrass",[8]; [12],6
same,Blackgrass plant response rating,"[8]; Postemergence, Rate 500 g/ha",6
same,"Plant response rating, Blackgrass",[8]; [13],0
same,Blackgrass plant response rating (0 to 10 scale),"[8]; Preemergence, Rate 125 g/ha",2
same,Blackgrass plant response rating,"[8]; Preemergence, Rate 250 g/ha",6
same,Blackgrass plant response rating,"[8]; Preemergence, Rate 500 g/ha",9
same,Blackgrass plant response rating,"[8]; Rate 62 g/ha, Postemergence",0
same,"Plant response rating, Redroot pigweed",[9]; [12],0
same,Redroot pigweed plant response rating,"[9]; Postemergence, Rate 500 g/ha",7
same,"Plant response rating, Redroot pigweed",[9]; [13],0
same,Redroot pigweed plant response rating (0 to 10 scale),"[9]; Preemergence, Rate 125 g/ha",0
same,Redroot pigweed plant response rating,"[9]; Preemergence, Rate 250 g/ha",4
same,Redroot pigweed plant response rating,"[9]; Preemergence, Rate 500 g/ha",10
same,Redroot pigweed plant response rating,"[9]; Rate 62 g/ha, Postemergence",0
same,"Plant response rating, Giant foxtail",[10]; [17],2
same,"Plant response rating, Giant foxtail",[10]; [12],7
same,Giant foxtail plant response rating,"[10]; Postemergence, Rate 500 g/ha",8
same,"Plant response rating, Giant foxtail",[10]; [13],2
same,Giant foxtail plant response rating (0 to 10 scale),"[10]; Preemergence, Rate 125 g/ha",8
same,Giant foxtail plant response rating,"[10]; Preemergence, Rate 250 g/ha",10
same,Giant foxtail plant response rating,"[10]; Preemergence, Rate 500 g/ha",10
same,Giant foxtail plant response rating,"[10]; Rate 62 g/ha, Postemergence",0
